From patent publication US20050049282A1, “Process” (priority 2001, published 2005)

Key:
[1] = Stability of omeprazole in alcoholic solution under chromatographic conditions; format: physicochemical; details: methanol with addition of 0.1% diethylamine
Description: It has previously been reported that alcoholic solution of omeprazole is not stable in room temperature and in daylight. There is thus a risk that one or several decomposition products might co-elute with one of the enantiomers.

[2] = room temperature and daylight; cited from earlier work

For `COc1ccc2[nH]c([S+]([O-])Cc3ncc(C)c(OC)c3C)nc2c1` (racemic) [omeprazole, 5-methoxy-2-[[(4-methoxy-3,5-dimethyl-2-pyridinyl)methyl]sulfinyl]-1H-benzimidazole], the “stability of solution in methanol” value [1] is listed as “stabilizes a solution of omeprazole in methanol to a sufficient degree” and the “stability of alcoholic solution” value [2] is listed as “not stable”.
